Like-named read-outs stand apart in the source and are kept apart here.
Experiments:
[1] = target: T1, α1B-adrenoceptor (spleen) (Rattus norvegicus, UniProt P15823); assay: In vitro functional assay, phenylephrine-induced contraction of isolated spleen; type: cell-based
T1 construct: Aorta, prostate and spleen tissues were isolated from urethane anaesthetized (1.5 gm/kg) male wistar rats; from tissue; host or cells: isolated spleen of male Wistar rats
T1 sequence (P15823 1-515): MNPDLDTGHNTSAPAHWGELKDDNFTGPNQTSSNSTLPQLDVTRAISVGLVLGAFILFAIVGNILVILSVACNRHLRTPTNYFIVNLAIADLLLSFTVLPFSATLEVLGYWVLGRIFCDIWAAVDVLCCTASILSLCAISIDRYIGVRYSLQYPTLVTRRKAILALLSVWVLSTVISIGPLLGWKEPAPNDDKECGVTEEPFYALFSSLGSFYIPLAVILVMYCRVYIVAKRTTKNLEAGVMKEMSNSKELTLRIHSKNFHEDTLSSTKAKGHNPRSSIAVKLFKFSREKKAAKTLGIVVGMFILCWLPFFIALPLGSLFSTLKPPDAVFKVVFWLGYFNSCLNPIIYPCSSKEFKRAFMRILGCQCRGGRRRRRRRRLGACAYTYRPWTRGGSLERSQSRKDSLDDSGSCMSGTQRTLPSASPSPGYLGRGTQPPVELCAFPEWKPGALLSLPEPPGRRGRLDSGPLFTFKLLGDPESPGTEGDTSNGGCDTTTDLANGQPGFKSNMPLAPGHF
Text: (§1) In order to study selectivity of action of the present compounds towards different α-adrenoceptor subtypes, the ability of these compounds to antagonize α1-adrenoceptor agonist induced contractile response of aorta (α1D), prostate (α1A) and spleen (α1B) was studied. Aorta, prostate and spleen tissues were isolated from urethane anaesthetized (1.5 gm/kg) male wistar rats. Isolated tissues were mounted in organ bath containing Krebs Henseleit buffer of the following composition (mM): NaCl 118; KCl 4.7; CaCl2 2.5; MgSO4·H2O 1.2; NaHCO3 25; KH2PO4 1.2; glucose 11.5. Buffer was maintained at 37° C. and aerated with a mixture of 95% O2 and 5% CO2. A resting tension of 2 g (aorta) or 1 g (spleen and prostate) was applied to tissues. Contractile response was monitored using a force displacement transducer and recorded on chart recorders. Tissues were allowed to equilibrate for 2 hours. At the end of equilibration period, concentration response curves to norepinephrine (aorta) and phenylephrine (spleen and prostate) were obtained in the absence and presence of the tested compound (at concentrations of 0.1, 1 and 10 μM). Antagonist affinity was calculated and expressed as PKB values in Table 1.

α1D-adrenoceptor (aorta) = target: T2, α1D-adrenoceptor (aorta) (Rattus norvegicus, UniProt P23944); assay: In vitro functional assay, norepinephrine-induced contraction of isolated aorta; type: cell-based
T2 construct: Aorta, prostate and spleen tissues were isolated from urethane anaesthetized (1.5 gm/kg) male wistar rats; from tissue; host or cells: isolated aorta of male Wistar rats
T2 sequence (P23944 1-561): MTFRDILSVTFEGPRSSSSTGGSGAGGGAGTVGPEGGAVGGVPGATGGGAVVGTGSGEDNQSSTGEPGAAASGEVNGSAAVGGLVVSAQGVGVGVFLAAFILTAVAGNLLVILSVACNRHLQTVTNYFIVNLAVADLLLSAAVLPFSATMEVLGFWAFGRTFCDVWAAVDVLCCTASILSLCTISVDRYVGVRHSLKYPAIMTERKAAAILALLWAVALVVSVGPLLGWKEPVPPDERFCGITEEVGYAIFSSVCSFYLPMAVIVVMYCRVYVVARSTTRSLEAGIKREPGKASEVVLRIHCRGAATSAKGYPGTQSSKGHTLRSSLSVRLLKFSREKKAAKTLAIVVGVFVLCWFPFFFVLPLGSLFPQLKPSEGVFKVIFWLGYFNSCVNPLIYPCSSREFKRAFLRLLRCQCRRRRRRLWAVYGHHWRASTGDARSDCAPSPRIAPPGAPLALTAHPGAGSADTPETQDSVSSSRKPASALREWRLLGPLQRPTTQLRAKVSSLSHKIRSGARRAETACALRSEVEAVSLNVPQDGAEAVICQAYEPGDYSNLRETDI
Text: as §1

α1A-adrenoceptor = target: T3, α1A-adrenoceptor (Rattus norvegicus, UniProt P43140); assay: Receptor binding assay, [3H]prazosin, rat submaxillary membranes
T3 construct: from tissue; host or cells: rat submaxillary gland membranes
T3 sequence (P43140 1-466): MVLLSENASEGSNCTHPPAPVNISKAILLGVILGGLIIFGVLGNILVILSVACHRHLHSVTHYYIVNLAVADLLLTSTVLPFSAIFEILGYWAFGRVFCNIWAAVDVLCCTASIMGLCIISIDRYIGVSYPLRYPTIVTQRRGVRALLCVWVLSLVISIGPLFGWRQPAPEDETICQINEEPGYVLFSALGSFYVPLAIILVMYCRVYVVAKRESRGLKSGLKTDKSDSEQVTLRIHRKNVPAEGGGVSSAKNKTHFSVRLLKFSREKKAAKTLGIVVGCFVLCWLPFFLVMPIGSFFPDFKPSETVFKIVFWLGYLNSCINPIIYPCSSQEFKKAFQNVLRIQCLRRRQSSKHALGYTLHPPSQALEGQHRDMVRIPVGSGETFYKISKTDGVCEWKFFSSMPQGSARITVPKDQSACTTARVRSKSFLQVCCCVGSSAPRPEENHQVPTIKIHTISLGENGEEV
Protocol: (§2) Receptor binding assays, (RBA's) were performed for native α1-adrenoceptors. Rat submaxillary and rat liver membrane preparations were used to assess the affinity for α1A and α1B subtypes, respectively. Aliquots of membrane protein ([…]) were incubated in a final volume of […] assay buffer (50 mM Tris, 0.5 mM EDTA at pH 7.4) with 0.5 nM [^3H] prazosin for 60 mins at 28 ° C. Reaction was stopped by rapid filtration on Millipore filters. Filters were dried and bound radioactivity counted. Non-specific binding was determined in the presence of 0.3 mM prazosin.

α1B-adrenoceptor = target: T4, α1B-adrenoceptor (Rattus norvegicus, UniProt P15823); assay: Receptor binding assay, [3H]prazosin, rat liver membranes
T4 construct: from tissue; host or cells: rat liver membranes
T4 sequence (P15823 1-515): T1 sequence (P15823 1-515)
Protocol: as §2

[2] = target: T5, α1A-adrenoceptor (prostate) (Rattus norvegicus, UniProt P43140); assay: In vitro functional assay, phenylephrine-induced contraction of isolated prostate; type: cell-based
T5 construct: Aorta, prostate and spleen tissues were isolated from urethane anaesthetized (1.5 gm/kg) male wistar rats; from tissue; host or cells: isolated prostate of male Wistar rats
T5 sequence (P43140 1-466): T3 sequence (P43140 1-466)
Text: as §1

[3] = rat spleen, phenylephrine, read-out: In Vitro Functional Assay (pKB) α1B (converted)
[4] = rat aorta, norepinephrine, read-out: In Vitro Functional Assay (pKB) α1D (converted)
[5] = rat submaxillary membranes, 0.5 nM [3H]prazosin, read-out: RBA (Ki nM) α1A
[6] = rat liver membranes, 0.5 nM [3H]prazosin, read-out: RBA (Ki nM) α1B
[7] = rat prostate, phenylephrine, read-out: In Vitro Functional Assay (pKB) α1A (converted)

| SMILES | Kb [1, 3] | Kb (α1D-adrenoceptor (aorta); [4]) | Ki (α1A-adrenoceptor; [5]) | Ki (α1B-adrenoceptor; [6]) | Kb [2, 7] | Kb (α1D-adrenoceptor (aorta)) | Ki (α1A-adrenoceptor) | Ki (α1B-adrenoceptor) | Kb [1] | Kb [2] |
| --- | --- | --- | --- | --- | --- | --- | --- | --- | --- | --- |
| Cc1ccc(N2CCN(CCCN3C(=O)CCC3=O)CC2)cc1C [Compound 7, 1-[4-(3,4-Dimethylphenyl)piperazin-1-yl]-3-(2,5-dioxopyrrolidin-1-yl)propane] | 200 nM | 316 nM | 450 nM | 282 nM | 398 nM |  |  |  |  |  |
| O=C1CCC(=O)N1CCCN1CCN(c2ncccn2)CC1 [Compound 6, 1-[4-(2-Pyrimidyl)piperazin-1-yl]-3-(2,5-dioxopyrrolidin-1-yl)propane] | 5010 nM | 316 nM | 1140 nM | > 2500 nM | 20000 nM |  |  |  |  |  |
| O=C1CCC(=O)N1CCCN1CCN(c2cccc(Cl)c2)CC1 [Compound 5, 1-[4-(3-Chlorophenyl)piperazin-1-yl]-3-(2,5-dioxopyrrolidin-1-yl)propane] | 5010 nM |  | 106 nM | 175 nM | 5010 nM | 100 nM |  |  |  |  |
| COc1ccc(N2CCN(CCCN3C(=O)CCCC3=O)CC2)cc1 [Compound 24, 1-[4-(4-Methoxyphenyl)piperazin-1-yl]-3-(2,6-dioxopiperidin-1-yl)propane] |  |  |  |  |  |  | < 2500 nM | > 2500 nM |  |  |
| O=C1CCCC(=O)N1CCCN1CCN(c2ncccn2)CC1 [Compound 22, 1-[4-(2-Pyrimidyl)piperazin-1-yl]-3-(2,6-dioxopiperidin-1-yl)propane] |  | 100 nM | > 2500 nM | > 2500 nM | 398 nM |  |  |  |  |  |
| COc1ccccc1N1CCN(CCCN2C(=O)CC(c3ccccc3)C2=O)CC1 (stereo not shown) [Compound 26, 1-[4-(2-Methoxyphenyl)piperazin-1yl]-3-[2,5-dioxo-3-phenyl-pyrolidin-1-yl]propane] |  |  | 30 nM | 600 nM |  |  |  |  |  |  |
| COc1ccccc1N1CCN(CCCCN2C(=O)CCCC2=O)CC1 [Compound 25, 1-[4-(2-Methoxyphenyl)piperazin-1yl]-4-(2,6-dioxopiperidin-1yl)butane] |  |  | 1.6 nM | 7.5 nM |  |  |  |  |  |  |
| O=C1CCCC(=O)N1CCCN1CCN(c2ccc(F)cc2)CC1 [Compound 14, 1-[4-(4-Fluorophenyl)piperazin-1-yl]-3-(2,6-dioxopiperidin-1yl)propane] | 39.8 nM | 79.4 nM | 67 nM | 192 nM | 3.98 nM |  |  |  |  |  |
| O=C1CCC(=O)N1CCCN1CCN(c2cccc(C(F)(F)F)c2)CC1 [Compound 3, 1-[4-(3-Trifluoromethylphenyl)piperazin-1-yl]-3-(2,5-dioxopyrrolidin-1-yl)propane] |  | 10000 nM | 1500 nM | 1000 nM |  |  |  |  | 63.1 nM |  |
| O=C1CCC(=O)N1CCCN1CCC(c2ccccc2)CC1 [Compound 27, 1-[4-(Phenyl)piperidin-1-yl]-3-[2,5-dioxopyrolidin-1-yl]propane] |  |  | 1300 nM | 2000 nM |  |  |  |  |  |  |
| O=C1CCC(=O)N1CCCN1CCN(c2ccccc2)CC1 [Compound 8, 1-[4-(Phenylpiperazin)-1-yl]-3-(2,5-dioxopyrrolidin-1-yl)propane] |  | 251 nM |  | 590 nM |  |  | 57 nM |  |  | 31.6 nM |
| Cc1ccc(N2CCN(CCCN3C(=O)CCCC3=O)CC2)cc1C [Compound 21, 1-[4-(3,4-Dimethylphenyl)piperazin-1-yl]-3-(2,6-dioxopiperidin-1yl)propane] | 200 nM | 316 nM | 2130 nM | 176 nM | 316 nM |  |  |  |  |  |
| COc1cccc(N2CCN(CCCN3C(=O)CCC3=O)CC2)c1 [Compound 11, 1-[4-(3-Methoxyphenyl)piperazin-1-yl]-3-(2,5-dioxopyrrolidin-1-yl)propane] |  |  | > 2500 nM | > 2500 nM |  |  |  |  |  |  |
| O=C1CCCC(=O)N1CCCN1CCN(c2ccccn2)CC1 [Compound 19, 1-[4-(2-Pyridyl)piperazin-1-yl)-3-(2,6-dioxopiperidin-1-yl)propane] |  | 200 nM | 164 nM | > 2500 nM | 398 nM |  |  |  |  |  |
| O=C1CCCC(=O)N1CCCN1CCN(c2ccccc2F)CC1 [Compound 17, 1-[4-(2-Fluorophenyl)piperazin-1-yl]-3-(2,6-dioxopiperidin-1-yl)propane] |  |  |  | 396 nM |  | 12.6 nM | 21 nM |  | 79.4 nM | 10 nM |
| COc1cccc(N2CCN(CCCN3C(=O)CCCC3=O)CC2)c1 [Compound 23, 1-[4-(3-Methoxyphenyl)piperazin-1yl]-3-(2,6-dioxopiperidin-1-yl)propane] |  |  | 2170 nM | 940 nM |  |  |  |  |  |  |
| O=C1CCCC(=O)N1CCCN1CCN(c2ccc(Cl)cc2)CC1 [Compound 15, 1-[4-(4-Chlorophenyl)piperazin-1-yl]-3-(2,6-dioxopiperidin-1yl)propane] | 1000 nM | 631 nM | 520 nM | 201 nM | 200 nM |  |  |  |  |  |
| O=C1CCC(=O)N1CCCN1CCN(c2ccccn2)CC1 [Compound 4, 1-[4-(2-Pyridyl)piperazin-1-yl]-3-(2,5-dioxopyrrolidin-1-yl)propane] |  | 2510 nM | 1660 nM | 2100 nM |  |  |  |  |  |  |
| O=C1CCCC(=O)N1CCCN1CCN(c2cccc(C(F)(F)F)c2)CC1 [Compound 16, 1-[4-(3-Trifluoromethylphenyl)piperazin-1-yl]-3-(2,6-dioxopiperidin-1-yl)propane] |  | 126 nM | 345 nM | 765 nM | 316 nM |  |  |  |  |  |
| O=C1CCCC(=O)N1CCCN1CCN(c2cccc(Cl)c2)CC1 [Compound 20, 1-[4-(3-Chlorophenyl)piperazin-1-yl]-3-(2,6-dioxopiperidin-1-yl)propane] |  | 25.1 nM | 22 nM | 113 nM | 31.6 nM |  |  |  |  |  |
| COc1ccc(N2CCN(CCCN3C(=O)CCC3=O)CC2)cc1 [Compound 12, 1-[4-(4-Methoxyphenyl)piperazin-1yl]-3-(2,5-dioxopyrrolidin-1yl)propane] |  |  | > 2500 nM | > 2500 nM |  |  |  |  |  |  |

From US6410735B1, “1-(4-arylpiperazin-1-y1)-ω-[N-(α,ω-dicarboximido)]-alkanes useful as uro-selective α1-adrenoceptor blockers” (Ranbaxy Laboratories Limited, priority 1997, dated 2002)
